Here are results for 18 compounds from publication PMC3504033, “Inhibition of Angiotensin-Converting Enzyme Activity by Flavonoids: Structure-Activity Relationship Studies” (PLoS ONE, 2012).

Assay [1] concerns the target T1, Angiotensin-I Converting Enzyme from rabbit lung (Oryctolagus cuniculus, UniProt P12822).
T1 construct: Angiotensin-I Converting Enzyme from rabbit lung; purchased Sigma (Barcelona, Spain); host or cells: rabbit lung tissue
T1 sequence (P12822 34-1310): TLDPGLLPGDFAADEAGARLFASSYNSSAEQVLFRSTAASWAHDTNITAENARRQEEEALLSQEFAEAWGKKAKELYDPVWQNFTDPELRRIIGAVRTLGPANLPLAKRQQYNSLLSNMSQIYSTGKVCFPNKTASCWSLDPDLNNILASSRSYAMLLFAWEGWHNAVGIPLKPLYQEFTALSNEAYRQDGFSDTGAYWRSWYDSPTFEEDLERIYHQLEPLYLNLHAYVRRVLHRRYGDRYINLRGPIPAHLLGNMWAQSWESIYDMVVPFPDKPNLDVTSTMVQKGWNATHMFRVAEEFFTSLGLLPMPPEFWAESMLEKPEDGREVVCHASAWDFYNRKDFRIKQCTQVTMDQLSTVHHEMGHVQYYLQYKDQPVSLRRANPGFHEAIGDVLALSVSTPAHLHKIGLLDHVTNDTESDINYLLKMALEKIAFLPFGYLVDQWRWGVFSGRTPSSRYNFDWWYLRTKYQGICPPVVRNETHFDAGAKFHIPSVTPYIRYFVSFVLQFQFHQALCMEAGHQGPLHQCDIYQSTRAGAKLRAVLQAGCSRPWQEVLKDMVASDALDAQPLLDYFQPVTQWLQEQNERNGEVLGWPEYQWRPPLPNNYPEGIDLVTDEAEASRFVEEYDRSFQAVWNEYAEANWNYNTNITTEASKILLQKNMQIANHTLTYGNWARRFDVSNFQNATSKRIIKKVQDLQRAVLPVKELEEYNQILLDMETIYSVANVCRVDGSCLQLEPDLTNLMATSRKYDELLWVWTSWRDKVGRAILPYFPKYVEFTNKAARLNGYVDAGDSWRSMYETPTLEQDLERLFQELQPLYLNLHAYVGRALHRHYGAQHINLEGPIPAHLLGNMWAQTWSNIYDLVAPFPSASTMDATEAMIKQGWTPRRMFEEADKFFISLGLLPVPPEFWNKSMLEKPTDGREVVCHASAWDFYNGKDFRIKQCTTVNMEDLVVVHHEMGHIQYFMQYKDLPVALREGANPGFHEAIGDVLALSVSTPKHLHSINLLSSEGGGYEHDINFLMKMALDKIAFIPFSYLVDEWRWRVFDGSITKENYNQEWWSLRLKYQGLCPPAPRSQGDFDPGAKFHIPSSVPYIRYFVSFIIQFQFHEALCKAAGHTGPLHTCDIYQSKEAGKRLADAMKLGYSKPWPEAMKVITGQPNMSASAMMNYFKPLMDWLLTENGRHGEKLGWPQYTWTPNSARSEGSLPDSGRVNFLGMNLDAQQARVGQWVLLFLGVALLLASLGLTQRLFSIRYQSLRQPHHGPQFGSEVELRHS
Briefly: ACE-inhibitory (ACEI) activity, fluorimetric assay with o-Abz-Gly-p-Phe(NO2)-Pro substrate. Particulars: for inhibition at 100 µM / inhibition at 500 µM: 0.5 h; for inhibition at 100 µM: mean of three experiments (Figure 2A); for change of ACEI activity on structural change, vs. luteolin: compared with luteolin (Figure 3); for relative IC50 ratio: IC50 relative to luteolin (1); for IC50: technical and biological triplicate, read-out: IC50 value (concentration that inhibits ACE activity by 50%). It is filed as biochemical. An excerpt:
o-aminobenzoylglycyl-p-nitro-phenylalanylproline (o-ABz-Gly-Phe(NO2)-Pro) was purchased from Bachem Feinchemikalien (Bubendorf, Switzerland). Five units of Angiotensin-I Converting Enzyme from rabbit lung and ZnCl2 were obtained from Sigma (Barcelona, Spain). […] Flavonoids were solubilized in dimethyl sulfoxide (DMSO) and prepared daily. In all experiments, the final concentration of DMSO was 0.4%. Distilled water was obtained from a Millipore Milli-Q® system.
Flavonoid solutions (100 and 500 µM) were prepared in DMSO (0.4%) daily. The 0.1 U/mL ACE solution stock was prepared in glycerol: water (1∶1), aliquoted and stored at −20°C. The 0.1 µM ZnCl2 stock solution was prepared and stored at 4°C. The ACE working solution was prepared daily by diluting it in 150 mM Tris buffer (pH 8.3) containing 0.1 µM ZnCl2.
ACEI activity was measured by a fluorimetric assay following the method of Sentandreu and Toldrá [43] with some modifications. […] Fluorescence was measured after 30 min in 96-well microplates (Thermo Scientific, Rochester, NY) using a multiscan microplate fluorimeter (Biotek. FL×800). Microplates (Thermo Scientific, Rochester, NY) were used in this assay. The excitation and emission wavelengths were 360 and 430 nm, respectively. The activity of each sample was tested in technical and biological triplicate.
The ACEI activity was calculated using the following formula: [drawing 1] where A is the fluorescence without the flavonoid solution, B is the fluorescence without ACE and C is the fluorescence in the presence of both ACE and the flavonoid solution. A flavonoid solution of 500 µM was selected on the basis of previous studies, [35], and the concentration of 100 µM was chosen because it is within the physiological concentration range. […] The IC50 of each selected flavonoid was tested in technical and biological triplicate. The results from three experiments are expressed as the mean ± SD and were performed in different platelet samples.

The next assay deals with ACE N domain. More on the design: method as in PMID 11303049. The note with it: ACE inhibition with N-domain-specific inhibitor; cited from earlier work.
[2] abbreviates: read-out: percentage of ACE inhibition, 100 µM flavonoid, purified lung ACE, 37°C, 30 min.
Where [3] appears, read: 100 µM flavonoid, purified lung ACE, 37°C, 30 min, read-out: percentage of ACE inhibition.
[4] abbreviates: 500 µM flavonoid, purified lung ACE, 37°C, 30 min, mean of three experiments (Figure 2B), read-out: percentage of ACE inhibition.

Read-outs that look alike come from different tables or passages of the source.

For orientation: inhibition means the change of the read-out against control, counted positive when it falls. As to `COc1ccc(C2CC(=O)c3c(O)cc(OC4OC(COC5OC(C)C(O)C(O)C5O)C(O)C(O)C4O)cc3O2)cc1O` (centres unmarked) [Hesperidin], the inhibition at 100 µM in assay [1] (setting [2]) was found to be 0%. The inhibition at 500 µM in assay [1] (read-out: percentage of ACE inhibition, 500 µM flavonoid, purified lung ACE, 37°C, 30 min, mean of three experiments (Figure 2B)) was 17%.
Consider `COc1ccc([C@@H]2CC(=O)c3c(O)cc(O)cc3O2)cc1O` [Hesperetin], for which the inhibition at 100 µM in assay [1] (setting [3]) amounted to 0.7%. For the same compound, in assay [1] (setting [4]), the inhibition at 500 µM was over 30%.
Take `O=c1c(O)c(-c2ccc(O)c(O)c2)oc2cc(O)cc(O)c12` [Quercetin]: in assay [1] (100 µM), the “change of ACEI activity on structural change, vs. luteolin” value (from here on “change of ACEI activity … vs. luteolin”) is −44%. The inhibition at 100 µM in assay [1] (setting [2]) is over 30%.
Consider `O=c1cc(-c2ccc(O)c(O)c2)oc2cc(O)cc(O)c12` [Luteolin], for which, in assay [1], the “relative IC50 ratio” value amounted to 1 and the IC50 is 23 µM.
On to `O=c1c(-c2ccc(O)cc2)coc2cc(O)cc(O)c12` [Genistein], for which the inhibition at 100 µM in assay [1] (setting [3]) is 25.7%. Moreover, the inhibition at 500 µM in assay [1] (setting [4]) is over 30%.
On to `O=C1C[C@@H](c2ccc(O)cc2)Oc2cc(O)cc(O)c21.[K]` [Naringenin K], for which the “percentage of ACE inhibition” value in assay [1] (500 µM flavonoid, purified lung ACE, 37°C, 30 min, mean of three experiments (Figure 2B), listed as narigenin K) is “higher than 30%”.
For `C[C@@H]1O[C@@H](OC[C@H]2O[C@@H](Oc3c(-c4ccc(O)c(O)c4)oc4cc(O)cc(O)c4c3=O)[C@H](O)[C@@H](O)[C@@H]2O)[C@H](O)[C@H](O)[C@H]1O` [Rutin, quercetin 3-O-glycoside], the “change of ACEI activity … vs. luteolin” value in assay [1] (100 µM) is given as -36%. The inhibition at 100 µM in assay [1] (setting [3]) was over 30%. Also, in assay [1], the “relative IC50 ratio” value amounted to 2.78 and the IC50 came to 64 µM.
For the compound `O=c1cc(-c2ccc(O)cc2)oc2cc(O)cc(O)c12` [Apigenin], in assay [1] (100 µM), the “change of ACEI activity … vs. luteolin” value is on record as −57% and the “reduction of ACEI activity relative to luteolin” value was 57%. Besides, the inhibition at 100 µM in assay [1] (setting [3]) was determined as 24.7%.
On to `O=c1cc(-c2ccc(O)cc2)oc2cc(O)cc(O)c12.[K]` [Apigenin K], for which, in assay [1], the “relative IC50 ratio” value came out at 8.52 and the IC50 was determined as 196 µM.
In the case of `C[C@@H]1O[C@@H](O[C@H]2[C@H](Oc3cc(O)c4c(c3)O[C@H](c3ccc(O)cc3)CC4=O)O[C@H](CO)[C@@H](O)[C@@H]2O)[C@H](O)[C@H](O)[C@H]1O` [Naringin], the inhibition at 100 µM in assay [1] (setting [3]) turned out to be 4.5%. For the same compound, the inhibition at 500 µM in assay [1] (setting [4]) is 23.3%.
As to `O=C1C[C@@H](c2ccc(O)cc2)Oc2cc(O)cc(O)c21` [Naringenin], the “change of ACEI activity on structural change, vs. apigenin” value in assay [1] (100 µM, compared with apigenin (Figure 3)) is on record as −91%. For the same compound, the “reduction of ACEI activity vs. apigenin” value in assay [1] (100 µM, vs. apigenin) came out at 91%. The inhibition at 100 µM in assay [1] (setting [3]) stood at 2.3%. The inhibition at 500 µM in assay [1] (setting [4]) was determined as 22.3%.
For `C[C@@H]1O[C@@H](O[C@H]2[C@H](Oc3cc(O)c4c(=O)cc(-c5ccc(O)cc5)oc4c3)O[C@H](CO)[C@@H](O)[C@@H]2O)[C@H](O)[C@H](O)[C@H]1O` [Rhoifolin, apigenin 7-O-glycoside], the inhibition at 100 µM in assay [1] (setting [3]) is over 30%. Also, in assay [1], the “relative IC50 ratio” value is given as 7.96 and the IC50 is 183 µM.
In the case of `COc1ccc(-c2cc(=O)c3c(O)cc(O[C@@H]4O[C@H](CO[C@@H]5O[C@@H](C)[C@H](O)[C@@H](O)[C@H]5O)[C@@H](O)[C@H](O)[C@H]4O)cc3o2)cc1O` [Diosmin], in assay [1] (setting [3]), the inhibition at 100 µM stood at 9.3%. Moreover, in assay [1] (setting [4]), the inhibition at 500 µM was over 30%.
For the compound `Oc1cc(O)c2c(c1)O[C@H](c1ccc(O)c(O)c1)[C@@H](O)C2` [Catechin], the inhibition at 100 µM in assay [1] (setting [3]) is 7.5%. Further, the inhibition at 500 µM in assay [1] (setting [4]) stood at 29%.
For `Oc1cc(O)c2c(c1)O[C@H](c1ccc(O)c(O)c1)[C@H](O)C2` [Epicatechin], in assay [1] (100 µM), the “change of ACEI activity … vs. luteolin” value is reported as −74%. Further, the inhibition at 100 µM in assay [1] (setting [3]) came to 15%. In assay [1] (setting [4]), the inhibition at 500 µM was over 30%.
With `O=c1c(O)c(-c2ccc(O)cc2)oc2cc(O)cc(O)c12` [Kaempferol], in assay [1] (setting [3]), the inhibition at 100 µM is over 30%. In assay [1], the “relative IC50 ratio” value was 7.74 and the IC50 was found to be 178 µM. Also, in assay [1] (relative to quercetin), the “increase in the IC50 relative to quercetin” value is recorded as 4 fold.
`COc1ccc(-c2cc(=O)c3c(O)cc(O)cc3o2)cc1O` [Diosmetin]: in assay [1] (100 µM), the “change of ACEI activity … vs. luteolin” value is on record as −78% and the “reduction of ACEI activity relative to luteolin” value is recorded as 78%. In addition, the inhibition at 100 µM in assay [1] (setting [3]) worked out at 12.5%.
In the case of `CC(=O)N[C@@H](CC(=O)O)C(=O)N[C@@H](Cc1ccccc1)P(=O)(O)C[C@@H](C)C(=O)N[C@@H](C)C(N)=O` [RXP407], the “effect on blood pressure regulation” value in the assay with ACE N domain is given as “no effect on blood pressure regulation”.
